Assay results from patent publication US8865448B2, “Aspergillus containing beta-glucosidase, beta-glucosidases and nucleic acids encoding the same” (Cleanvantage LLC, priority 2010, dated 2014).

Tests used:
[1] = tested on: Aspergillus saccharolyticus (strain AP, CBS 127449) beta-glucosidases, crude enzyme extract; test: Michaelis-Menten kinetics with cellobiose, crude solid state fermentation extract of strain AP; format: biochemical; settings: cellobiose as substrate, 50° C.
Procedure: The fungal strain AP/Aspergillus saccharolyticus was grown on potato dextrose agar (Sigma) for sporulation. Spores were harvested after 7 days of growth by adding sterile water to the plate and scrape on the surface of the culture. The heavy spore suspension was filtered through Myra cloth. Two ml of the spore solution was inoculated into 200 ml seed medium (2.0 g/l wheat bran, 5 g/l corn steep powder, 0.25 g/l yeast extract, 0.75 g/l peptone, 1.4 g/l (NH4)2SO4, 2.0 g/l KH2PO4, 0.4 g/l CaCl2 2H2O, 0.3 g/l MgSO4H2O, 5.0 mg/l FeSO4, 1.6 mg/l MnSO4 7H2O, 1.4 mg/l ZnSO4 7H2O, 2.0 CoCl2 6H2O) in an 500 ml Erlenmeyer flask, and incubated at 30° C. for 2 days, shaking at 160 rpm. […] The samples were incubated at 30° C. without shaking. After 7 days incubation, liquid was extracted from the medium by pressing the medium by hand using gloves. The extract was centrifuged at 10000 g, and the supernatant filtered through Whatman filter paper. In this work specific activity (U/mg) is defined as units per amount of total protein. […] Samples were assayed at different concentrations in triple determination to ensure substrate saturation in the assay. […] Triple determinations were performed. A substrate saturation curve was prepared by plotting substrate concentration [S] vs reaction rate, v. […]

[2] = tested on: Cellic CTec beta-glucosidases, commercial preparation; test: Michaelis-Menten kinetics with cellobiose, Cellic CTec; format: biochemical; settings: cellobiose as substrate, 50° C.
Procedure: (§1) In this work specific activity (U/mg) is defined as units per amount of total protein. […] The assay using 5 mM pNPG in NaCltrate buffer pH 4.8 was performed as previously described; enzyme samples were assayed at different concentrations in triple determination to ensure substrate saturation in the assay. […] The glucose concentration was measured at Dionex ICS3000 using gradient elution: 0-20% eluent B (0.5M NaAcetate in 100 mM NaOH) in 13 min followed by 2 min washing with 50% eluent B and 5 min re-equilibrating with 100% eluent A (100 mM NaOH). Samples were assayed at different concentrations in triple determination to ensure substrate saturation in the assay.
(§2) Triple determinations were performed. A substrate saturation curve was prepared by plotting substrate concentration [S] vs reaction rate, v. The Michealis Menten constants Km and Vmax were determined from Hanes-Wolf plots where substrate concentration [S] is plotted against substrate concentration over reaction rate [S]/v, and the linear relationship of the data gives a slope of 1/Vmax, a y-intercept of Km/Vmax, and an x-intercept of −Km.
(§3) Enzyme kinetics are preferably carried out on pure enzyme preparations, but are in this study used for the comparison of the beta-glucosidases of the crude enzyme extract of strain AP/Aspergillus saccharolyticus and the commercial enzyme preparation Novozym 188 and Cellic CTec. […]

[3] = tested on: A. carbonarius KLU-93 beta-glucosidase; settings: cited from earlier work
[4] = tested on: A. niger NIAB280 beta-glucosidase; settings: hydrolysis of cellobiose, 50° C., pH 5.0; cited from earlier work
[5] = tested on: A. japonicus beta-glucosidase; settings: cellobiose; cited from earlier work
[6] = tested on: A. niger beta-glucosidases; settings: cellobiose; general literature search; cited from earlier work
[7] = tested on: A. niger BKMF-1305 beta-glucosidase; settings: cited from earlier work
[8] = tested on: Novozym 188 beta-glucosidase (Aspergillus niger), commercial preparation; test: Michaelis-Menten kinetics with cellobiose, Novozym 188; format: biochemical; settings: cellobiose as substrate, 50° C.
Procedure: as §1, §2, §3

[9] = tested on: A. niger CCRC31494 beta-glucosidase; settings: hydrolysis of cellobiose, 40° C., pH 4.0; cited from earlier work
[10] = tested on: A. phoenicis QM329 beta-glucosidase; settings: cited from earlier work
[11] = molecular target: T1, Aspergillus saccharolyticus CBS 127449 beta-glucosidase BGL1, his-tagged, expressed in T. reesei, SEQ ID NO: 3 (without signal peptide SEQ ID NO: 4) (Aspergillus saccharolyticus, UniProt G0X2F9); test: Michaelis-Menten kinetics with cellobiose, purified BGL1; format: biochemical; settings: cellobiose as substrate, 50° C., pH 4.8, Hanes plot
T1 construct: mature form lacks signal peptide 1-19
T1 sequence (G0X2F9 20-860): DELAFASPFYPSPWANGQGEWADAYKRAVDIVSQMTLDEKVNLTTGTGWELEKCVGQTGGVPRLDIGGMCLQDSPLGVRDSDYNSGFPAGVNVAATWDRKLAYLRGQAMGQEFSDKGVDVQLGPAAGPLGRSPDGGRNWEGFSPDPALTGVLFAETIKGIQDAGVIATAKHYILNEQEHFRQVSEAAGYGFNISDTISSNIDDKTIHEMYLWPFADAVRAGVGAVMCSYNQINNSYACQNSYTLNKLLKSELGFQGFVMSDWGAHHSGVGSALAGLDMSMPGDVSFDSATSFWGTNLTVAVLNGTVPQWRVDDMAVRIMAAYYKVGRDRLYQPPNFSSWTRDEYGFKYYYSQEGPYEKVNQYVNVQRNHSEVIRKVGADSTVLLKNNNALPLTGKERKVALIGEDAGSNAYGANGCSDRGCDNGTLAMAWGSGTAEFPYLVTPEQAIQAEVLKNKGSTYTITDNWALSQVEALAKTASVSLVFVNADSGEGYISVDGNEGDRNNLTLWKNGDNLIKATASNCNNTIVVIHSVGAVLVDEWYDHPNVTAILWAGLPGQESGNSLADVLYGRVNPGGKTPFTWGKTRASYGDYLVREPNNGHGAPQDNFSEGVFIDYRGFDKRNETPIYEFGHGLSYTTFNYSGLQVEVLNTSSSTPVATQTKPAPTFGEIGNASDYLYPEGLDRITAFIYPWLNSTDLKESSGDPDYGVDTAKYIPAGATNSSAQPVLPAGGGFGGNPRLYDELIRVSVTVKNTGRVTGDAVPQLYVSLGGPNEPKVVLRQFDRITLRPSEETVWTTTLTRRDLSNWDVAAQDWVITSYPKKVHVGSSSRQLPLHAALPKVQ
Procedure: In this work specific activity (U/mg) is defined as units per amount of total protein. […] The assay using 5 mM pNPG in NaCltrate buffer pH 4.8 was performed as previously described; enzyme samples were assayed at different concentrations in triple determination to ensure substrate saturation in the assay. […] Samples were assayed at different concentrations in triple determination to ensure substrate saturation in the assay.

[12] = cellobiose, jointly for A. phoenicis, A. niger, A. carbonarius (Jager et al., 2001)
[13] = hydrolysis of cellobiose, 50° C., pH 4.0

## OC[C@H]1O[C@@H](O[C@H]2[C@H](O)[C@@H](O)C(O)O[C@@H]2CO)[C@H](O)[C@@H](O)[C@@H]1O (some centres unmarked) [cellobiose]
[1]; pH 4.8, Hanes-Wolf plot
  Km: 1090 µM
[1]; pH 4.8, per total protein
  Vmax: 11.3 U/mg
[2]; pH 4.8, Hanes-Wolf plot
  Km: 1690 µM
[2]; pH 4.8, per total protein
  Vmax: 22.9 U/mg
[3]; [12]
  Km: 2000 to 3000 µM
[3]; [13]
  Vmax: 15.4 U/mg
[4]
  Vmax: 36.5 U/mg
[5]
  Km: 1000 µM
[6]
  Km: 1500 to 5600 µM
[7]; [12]
  Km: 2000 to 3000 µM
[7]; [13]
  Vmax: 38.8 U/mg
[8]; pH 4.8, Hanes-Wolf plot
  Km: 1060 µM
[8]; pH 4.8, per total protein
  Vmax: 7.5 U/mg
[9]
  Vmax: 5.27 U/mg
[10]; [12]
  Km: 2000 to 3000 µM
[10]; [13]
  Vmax: 27.3 U/mg
[11]
  Vmax: 45 U/mg
